Experimental data taken from patent US10781158B2, “Methods of protecting an organ using tetrahydrocurcumin and phosphatidylcholine” (Bhupinder Singh, priority 2014, dated 2020).
Several values for one entry are separate records, joined by “and”; a condition that tells them apart may be missing. Identical values can stand only once.

Assays:
5/6 nephrectomy rats [1] = assay: Kidney fibrosis, image quantitative analysis of Trichrome stained kidney slides in CKD rats; format: in vivo, Sprague-Dawley rats; conditions: for Kidney slides Trichrome stain, Relative % area fibrosis: Table 10, relative to CTL Ave 1
Excerpt: (§1) For induction of CKD via nephron mass reduction, Sprague-Dawley rats underwent partial left nephrectomy followed by total right nephrectomy one week later. CKD rats were then randomized to 1% THC diet with polyenylphosphatidylcholine (PPC, 3 g/1000 kcal) vs. regular chow. […] Tail blood pressure measurement and 24-hour urine collection were done within a week of study termination. After 9 weeks on special diet, blood and kidneys were collected for biochemical and histologic analyses.
(§2) The experimental groups included healthy controls, CTL n=5, non-treated CKD, n=6 and CKD/THC n=6. At time of randomization to regular chow vs. THC diet, average blood urea nitrogen (BUN) was similar between the CKD groups (63.5+10.5 vs. 66+16.5 mg/dL).

[2] = previously shown; cited from earlier work
5/6 nephrectomy rats [3] = assay: Tail blood pressure measurement in 5/6 nephrectomy CKD rats; format: in vivo, Sprague-Dawley rats; design: Diastolic tail BP: unit not given here
Excerpt: as §1
Rats were induced to have chronic kidney disease via nephron mass reduction, Sprague-Dawley rats underwent partial left nephrectomy followed by total right nephrectomy one week later. CKD rats were then randomized to 1% THC diet with polyenylphosphatidylcholine (PPC, 3 g/1000 kcal) vs. regular chow. The rats were then administered a dose of Buprenex, a narcotic, that can cause kidney damage.
(§3) After inducing chronic kidney disease, the rats were then treated with a pharmaceutical formulation comprising tetrahydrocurcumin, or with a pharmaceutical formulation that had both tetrahydrocurcumin and curcumin. The control group consisted of five rats, ([…]), the rats with CKD (rat number 4, 15, 20, 23, 25, 31), rats with chronic kidney disease treated with tetrahydrocurcumin (rat number 8, 11, 12, 14, 19, 21, 18 and 27) and rats treated with a combination of tetrahydrocurcumin and curcumin (rat number 1, 2, 16, 24, 28, 7, 17, 29 and 30). The measurements for the average BUN, blood pressure, body weight, delta BUN, Hgb, and Heart weight/body weight for the four groups are shown in FIGS. 2A-2G.

5/6 nephrectomy rats [4] = assay: Proteinuria, 24-hour urine collection (total protein, urine protein/creatinine) in CKD rats; format: in vivo, Sprague-Dawley rats
Excerpt: as §1
(§4) After 24 hours the rats were analyzed for proteinuria, Galectin-3, and C-reactive protein. Galectin-3 is a marker for cardiac fibrosis, and C-reactive protein is correlated with inflammation. Furthermore, a blood urea nitrogen test (BUN) was carried out with a creatinine and creatinine clearance blood test to evaluate the kidney functions and to look for nephrotoxicity.

[5] = high dosages; cited from earlier work
5/6 nephrectomy rats [6] = assay: Heart weight normalized to body weight (cardiac hypertrophy) in CKD rats; format: in vivo, Sprague-Dawley rats
Method: as §2, §3

[7] = at acidic and at physiological pH; cited from earlier work
5/6 nephrectomy rats [8] = assay: Galectin-3 (marker for cardiac fibrosis) in CKD rats; format: in vivo, Sprague-Dawley rats
Method: as §4

5/6 nephrectomy rats [9] = assay: Blood urea nitrogen (BUN), creatinine and creatinine clearance blood tests (kidney function) in CKD rats; format: in vivo, Sprague-Dawley rats; design: Change in BUN: unit not given here
Excerpt: as §1, §4
The blood urea nitrogen test (BUN) is primarily used with the creatinine test to evaluate kidney function and to help diagnose kidney disease. […] Therefore the pharmaceutical formulations comprising tetrahydrocurcumin with or without curcumin can be used to treat hypertension.

5/6 nephrectomy rats [10] = assay: Plasma C-reactive protein (CRP, inflammation) in CKD rats; format: in vivo, Sprague-Dawley rats
Excerpt: as §1, §4

[11] = Table 1, CKD/THC group n = 6, 1% THC diet with PPC, 9 weeks, mean ± S.D.
[12] = group AVE, CKD rats treated with THC
[13] = Table 1, CKD/THC group n = 6, mean ± S.D.
[14] = individual rats (Rat#), CKD rats treated with THC
[15] = Table 4, group AVE (THC 8 rats, THC/curcumin 9 rats)
[16] = Table 7, individual CKD rats, incl. rats 22 and 26

## COc1cc(CCC(=O)CC(=O)CCc2ccc(O)c(OC)c2)ccc1O [THC, tetrahydrocurcumin]
5/6 nephrectomy rats [1]; Table 1, CKD/THC group n = 6, mean ± S.D., CTL = 1
  Kidney fibrosis from Trichrome stained slides: relative % area: 1.16 ± 0.24 relative % area
5/6 nephrectomy rats [1]; group Ave
  Kidney slides Trichrome stain, Relative % area fibrosis: 1.1551
5/6 nephrectomy rats [1]; individual kidneys
  Kidney slides Trichrome stain, Relative % area fibrosis: 1.396 and 1.321 and 1.345 and 0.8958 and 1.146 and 0.8269
[2]
  Increase of plasma levels on co-administration with a lipid carrier such as PPC: 5 fold
5/6 nephrectomy rats [3]; [11]
  Diastolic blood pressure: 75.8 ± 12.8 mmHg
  Systolic blood pressure: 116.5 ± 11.1 mmHg
5/6 nephrectomy rats [3]; Table 5, group AVE
  Diastolic tail BP: 76.3
  Systolic tail BP: 117.4 mmHg
5/6 nephrectomy rats [3]; Table 5, individual CKD rats
  Diastolic tail BP: 95 and 69 and 60 and 78 and 81 and 67 and 77 and 83
  Systolic tail BP: 132 mmHg and 103 mmHg and 124 mmHg (2×) and 116 mmHg and 113 mmHg and 106 mmHg and 121 mmHg
5/6 nephrectomy rats [3]; [12]
  Diastolic tail BP: 75.8
5/6 nephrectomy rats [3]; individual rats (Rat#), 5/6 nephrectomy CKD rats treated with THC
  Diastolic tail BP: 95 and 69 and 60 and 81 and 67 and 83
5/6 nephrectomy rats [4]; CKD/THC group, significantly decreased
  Proteinuria decreased compared to non-treated CKD animals: ~50%
5/6 nephrectomy rats [4]; [13]
  Urine protein/creatinine: 47.91 ± 15.42 mg/g
5/6 nephrectomy rats [4]; Table 3, individual CKD rats
  24 hr total proteinuria: 638.5 mg and 612.7 mg and 355.6 mg and 537.7 mg and 613.8 mg and 410.1 mg
  Uprot/Cr ratio: 63.18 mg/g and 64.86 mg/g and 30.56 mg/g and 46.32 mg/g and 43.50 mg/g and 37.43 mg/g
5/6 nephrectomy rats [4]; Table 5, group AVE
  24 hr total proteinuria: 528.07 mg
5/6 nephrectomy rats [4]; Table 5, individual CKD rats
  24 hr total proteinuria: 638.50 mg and 612.75 mg and 355.61 mg and 537.69 mg and 613.82 mg and 410.08 mg
5/6 nephrectomy rats [4]; [12]
  24 hr total proteinuria: 526.15 mg
  Uprot/Cr ratio: 47.91 mg/g
5/6 nephrectomy rats [4]; [14]
  24 hr total proteinuria: 638.50 mg and 612.75 mg and 355.61 mg and 613.82 mg and 410.08 mg
  Uprot/Cr ratio: 63.18 mg/g and 64.86 mg/g and 30.56 mg/g and 43.50 mg/g and 37.43 mg/g
[5]
  Dosage at which relatively safe: 80 mgs/kg body weight
5/6 nephrectomy rats [6]; [13]
  Heart wet weight normalized to body weight: 3.89 ± 0.61 g/kg
5/6 nephrectomy rats [6]; [15]
  Heart wt: 1.068 g
  Heart wt/body wt: 4.16 g/kg
5/6 nephrectomy rats [6]; Table 4, individual CKD rats
  Heart wt: 1.169 g and 0.972 g and 1.165 g and 1.035 g and 0.854 g and 0.830 g and 1.530 g and 0.989 g
  Heart wt/body wt: 4.68 g/kg and 3.61 g/kg and 4.59 g/kg and 4.33 g/kg and 3.42 g/kg and 3.22 g/kg and 5.63 g/kg and 3.80 g/kg
5/6 nephrectomy rats [6]; Table 8, group AVE of 6 rats
  Heart wt: 0.997 g
  Heart wt/body wt: 3.89 g/kg
5/6 nephrectomy rats [6]; Table 8, individual CKD rats
  Heart wt: 1.169 g and 0.972 g and 1.165 g and 0.854 g and 0.830 g and 0.989 g
  Heart wt/body wt: 4.68 g/kg and 3.61 g/kg and 4.59 g/kg and 3.42 g/kg and 3.22 g/kg and 3.80 g/kg
[7]
  Solubility in water: poor solubility
5/6 nephrectomy rats [8]; Table 3, individual CKD rats
  Galectin-3: 285.96 ng/mL and 450.48 ng/mL and 436.37 ng/mL and 768.79 ng/mL and 273.14 ng/mL and 182.38 ng/mL
5/6 nephrectomy rats [8]; Table 6, group AVE
  Galectin-3: 442.95 ng/mL
5/6 nephrectomy rats [8]; Table 6, individual CKD rats
  Galectin-3: 285.96 ng/mL and 450.48 ng/mL and 436.37 ng/mL and 768.79 ng/mL and 273.14 ng/mL
5/6 nephrectomy rats [8]; [12]
  Galectin-3: 390.94 ng/mL
5/6 nephrectomy rats [8]; [14]
  Galectin-3: 285.96 ng/mL and 450.48 ng/mL and 436.37 ng/mL
5/6 nephrectomy rats [9]; CKD/THC group, 1% THC diet with PPC, 9 weeks, significantly lower
  BUN lower at termination compared to the non-treated CKD group: about 40%
5/6 nephrectomy rats [9]; [13]
  BUN at termination: 52.1 ± 19.1 mg/dL
  Plasma creatinine: 1.04 ± 0.22 mg/dL
5/6 nephrectomy rats [9]; Table 3, individual CKD rats
  Terminal BUN: 44.9 mg/dL and 60.3 mg/dL and 80.6 mg/dL and 107.7 mg/dL and 69.9 mg/dL and 32.1 mg/dL and 32.6 mg/dL and 201.8 mg/dL and 62.3 mg/dL
  Terminal Cr: 0.76 mg/dL and 1.28 mg/dL and 1.25 mg/dL and 1.48 mg/dL and 1.19 mg/dL and 1.13 mg/dL and 1.01 mg/dL and 2.30 mg/dL and 0.81 mg/dL
5/6 nephrectomy rats [9]; Table 3, individual CKD rats, creatinine clearance
  CrCL: 3.71 mL/min/kg and 1.90 mL/min/kg and 2.56 mL/min/kg and 2.27 mL/min/kg and 3.46 mL/min/kg and 2.91 mL/min/kg
5/6 nephrectomy rats [9]; [15]
  Change in BUN: −6.0
  Terminal BUN: 61.3 mg/dL
5/6 nephrectomy rats [9]; Table 4, individual CKD rats
  Terminal BUN: 44.9 mg/dL and 60.3 mg/dL and 80.6 mg/dL and 107.7 mg/dL and 32.1 mg/dL and 32.6 mg/dL and 69.9 mg/dL and 62.3 mg/dL
5/6 nephrectomy rats [9]; Table 4, individual CKD rats, terminal minus randomization
  Change in BUN: −13.6 and −6.2 and −15.9 and 31.6 and −28.7 and −14.7 and 3.4 and −4.3
5/6 nephrectomy rats [9]; Table 6, group AVE
  CrCL: 2.80 mL/min/kg
  Terminal Cr: 1.11 mg/dL
5/6 nephrectomy rats [9]; Table 6, individual CKD rats
  Terminal Cr: 0.76 mg/dL and 1.28 mg/dL and 1.25 mg/dL and 1.48 mg/dL and 1.13 mg/dL and 1.01 mg/dL and 1.19 mg/dL and 0.81 mg/dL
5/6 nephrectomy rats [9]; Table 6, individual CKD rats, creatinine clearance
  CrCL: 3.71 mL/min/kg and 1.90 mL/min/kg and 2.56 mL/min/kg and 2.27 mL/min/kg and 3.46 mL/min/kg and 2.91 mL/min/kg
5/6 nephrectomy rats [9]; [16]
  Terminal BUN: 44.9 mg/dL and 60.3 mg/dL and 80.6 mg/dL and 107.7 mg/dL and 69.9 mg/dL and 32.1 mg/dL and 32.6 mg/dL and 201.8 mg/dL and 62.3 mg/dL
  Terminal Cr: 0.8 mg/dL (2×) and 1.3 mg/dL and 1.2 mg/dL (2×) and 1.5 mg/dL and 1.1 mg/dL and 1.0 mg/dL and 2.3 mg/dL
5/6 nephrectomy rats [9]; Table 8, group AVE of 6 rats
  Change in BUN: −13.9
  Terminal BUN: 52.1 mg/dL
5/6 nephrectomy rats [9]; Table 8, individual CKD rats
  Change in BUN: −13.6 and −6.2 and −15.9 and −28.7 and −14.7 and −4.3
  Terminal BUN: 44.9 mg/dL and 60.3 mg/dL and 80.6 mg/dL and 32.1 mg/dL and 32.6 mg/dL and 62.3 mg/dL
5/6 nephrectomy rats [9]; [12]
  CrCL: 2.91 mL/min/kg
  Terminal sCr: 1.04 mg/dL
5/6 nephrectomy rats [9]; [14]
  CrCL: 3.71 mL/min/kg and 1.90 mL/min/kg and 2.56 mL/min/kg and 3.46 mL/min/kg and 2.91 mL/min/kg
5/6 nephrectomy rats [10]; Table 3, individual CKD rats
  CRP: 2.53 mg/mL and 3.22 mg/mL and 2.15 mg/mL and 4.38 mg/mL and 2.70 mg/mL and 3.43 mg/mL and 2.36 mg/mL and 1.19 mg/mL and 2.57 mg/mL
5/6 nephrectomy rats [10]; Table 6, group AVE
  CRP: 2.92 mg/mL
5/6 nephrectomy rats [10]; Table 6, individual CKD rats
  CRP: 2.53 mg/mL and 3.22 mg/mL and 2.15 mg/mL and 4.38 mg/mL and 3.43 mg/mL and 2.36 mg/mL and 2.70 mg/mL and 2.57 mg/mL
5/6 nephrectomy rats [10]; [12]
  CRP: 2.71 mg/mL
5/6 nephrectomy rats [10]; [14]
  CRP: 2.53 mg/mL and 3.22 mg/mL and 2.15 mg/mL and 3.43 mg/mL and 2.36 mg/mL and 2.57 mg/mL
